Assay results published in patent US20230167118A1, “DEGRADATION OF BRUTON'S TYROSINE KINASE (BTK) BY CONJUGATION OF BTK INIDBITORS WITH E3 LIGASE LIGAND AND METHODS OF USE” (BEIGENE, LTD., priority 2020, published 2023).

What was measured:
BTK = target: T1, BTK (Homo sapiens, UniProt Q06187); test: Cell Degradation: BTK degradation in TMD-8 cells, HTRF assay; format: cell-based; conditions: 6 h treatment, IC50 (DC50) of BTK degradation
T1 construct: High control=Cell group with added DMSO and without compound, indicating microplate readings without BTK degradation; endogenous in cells; host or cells: TMD-8 cells
Method in brief: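 TMD-8 cells treated 6 h with 8-dose 6-fold dilutions in 0.2% DMSO, then lysed and BTK quantified by HTRF (665/620 nm). Degradation % normalised to high/low controls; DC50 from four-parameter fit, Dmax as maximal degradation.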

HEK-293 cells = test: HEK-293 Cytotoxicity Assay (CellTiter-Glo); format: cell-based; conditions: Homo sapiens, HEK293, 72 h incubation, CellTiter-Glo luminescence
Method in brief: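 HEK-293 cells treated 72 h with 8 concentrations (4-fold dilutions, 0.2% DMSO final). Viability read by CellTiter-Glo luminescence; IC50 from four-parameter logistic fit of % inhibition.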

T1 sequence (Q06187 whole entry): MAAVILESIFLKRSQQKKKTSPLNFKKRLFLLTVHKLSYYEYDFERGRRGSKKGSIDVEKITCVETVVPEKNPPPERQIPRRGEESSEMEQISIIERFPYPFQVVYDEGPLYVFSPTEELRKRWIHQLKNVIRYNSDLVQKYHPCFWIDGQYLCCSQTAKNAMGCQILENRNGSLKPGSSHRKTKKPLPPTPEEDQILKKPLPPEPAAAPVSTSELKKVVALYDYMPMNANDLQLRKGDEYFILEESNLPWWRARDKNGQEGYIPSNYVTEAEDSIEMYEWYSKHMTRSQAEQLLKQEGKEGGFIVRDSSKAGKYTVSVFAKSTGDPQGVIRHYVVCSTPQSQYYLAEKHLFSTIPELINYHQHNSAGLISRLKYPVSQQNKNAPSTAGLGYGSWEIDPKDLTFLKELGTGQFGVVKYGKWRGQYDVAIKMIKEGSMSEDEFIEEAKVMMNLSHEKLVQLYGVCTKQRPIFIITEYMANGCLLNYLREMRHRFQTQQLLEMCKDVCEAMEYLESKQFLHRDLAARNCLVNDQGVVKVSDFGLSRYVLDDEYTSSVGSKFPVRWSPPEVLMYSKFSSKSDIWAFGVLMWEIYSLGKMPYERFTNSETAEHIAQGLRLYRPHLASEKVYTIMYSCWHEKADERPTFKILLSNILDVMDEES

Row | SMILES | DC50 (BTK) | IC50 (HEK-293 cells)
1 | C[C@@H](NC(=O)c1nc(C(C)(C)C)no1)c1cc(F)c(-c2ncnc3[nH]c(-c4ccc(N5CCN(CC6CCN(c7ccc(N8CCC(=O)NC8=O)cc7)CC6)CC5)cn4)cc23)cc1CO [Example 178, (R)-3-(tert-butyl)-N-(1-(4-(6-(5-(4-((1-(4-(2,4-dioxotetrahydropyrimidin-1(2H)-yl)phenyl)piperidin-4-yl)methyl)piperazin-1-yl)pyridin-2-yl)-7H-pyrrolo[2,3-d]pyrimidin-4-yl)-5-fluoro-2-(hydroxymethyl)phenyl)ethyl)-1,2,4-oxadiazole-5-carboxamide] | 0.44 nM | > 10000 nM
2 | Cc1cc(-c2ncnc3[nH]c(-c4ccc(C5CN(CC6CCN(c7ccc(N8CCC(=O)NC8=O)cc7)CC6)C5)nc4)cc23)ccc1[C@@H](C)NC(=O)c1nc(C(C)(C)C)no1 [Example 179, (R)-3-(tert-butyl)-N-(1-(4-(6-(6-(1-((1-(4-(2,4-dioxotetrahydropyrimidin-1(2H)-yl)phenyl)piperidin-4-yl)methyl)azetidin-3-yl)pyridin-3-yl)-7H-pyrrolo[2,3-d]pyrimidin-4-yl)-2-methylphenyl)ethyl)-1,2,4-oxadiazole-5-carboxamide] | 0.74 nM | 6040 nM
3 | Cc1cc(-c2ncnc3[nH]c(-c4ccc(C5(O)CCN(CC6CCN(c7ccc(N8CCC(=O)NC8=O)cc7)CC6)C5)cn4)cc23)ccc1[C@@H](C)NC(=O)c1nc(C(C)(C)C)no1 (stereo partly drawn) [Example 180, 3-(tert-butyl)-N-((1R)-1-(4-(6-(5-(1-((1-(4-(2,4-dioxotetrahydropyrimidin-1(2H)-yl)phenyl)piperidin-4-yl)methyl)-3-hydroxypyrrolidin-3-yl)pyridin-2-yl)-7H-pyrrolo[2,3-d]pyrimidin-4-yl)-2-methylphenyl)ethyl)-1,2,4-oxadiazole-5-carboxamide] | 0.52 nM | 985 nM
4 | Cc1cc(-c2ncnc3[nH]c(-c4ccc(N5CCN(Cc6ccc(C7CCC(=O)NC7=O)c(F)c6)CC5)cn4)cc23)ccc1[C@@H](C)NC(=O)c1nc(C(C)(C)C)no1 (stereo partly drawn) [Example 181, 3-(tert-butyl)-N-((1R)-1-(4-(6-(5-(4-(4-(2,6-dioxopiperidin-3-yl)-3-fluorobenzyl)piperazin-1-yl)pyridin-2-yl)-7H-pyrrolo[2,3-d]pyrimidin-4-yl)-2-methylphenyl)ethyl)-1,2,4-oxadiazole-5-carboxamide] | 1.58 nM | > 10000 nM
5 | Cc1cc(-c2ncnc3[nH]c(-c4ccc(C5CC6CCC(C5)N6CC5CCN(c6ccc(N7CCC(=O)NC7=O)cn6)CC5)cc4)cc23)ccc1[C@@H](C)NC(=O)c1nc(C(C)(C)C)no1 (stereo partly drawn) [Example 182, 3-(tert-butyl)-N-((1R)-1-(4-(6-(4-(8-((1-(5-(2,4-dioxotetrahydropyrimidin-1(2H)-yl)pyridin-2-yl)piperidin-4-yl)methyl)-8-azabicyclo[3.2.1]octan-3-yl)phenyl)-7H-pyrrolo[2,3-d]pyrimidin-4-yl)-2-methylphenyl)ethyl)-1,2,4-oxadiazole-5-carboxamide] | 1.34 nM | 2220 nM
6 | Cc1cc(-c2ncnc3[nH]c(-c4ccc(C5CC6CCC(C5)N6CC5CCN(c6ccc(N7CCC(=O)NC7=O)cc6)CC5)cc4)cc23)ccc1[C@@H](C)NC(=O)c1nc(C(C)(C)C)no1 (stereo partly drawn) [Example 183, 3-(tert-butyl)-N-((1R)-1-(4-(6-(4-(8-((1-(4-(2,4-dioxotetrahydropyrimidin-1(2H)-yl)phenyl)piperidin-4-yl)methyl)-8-azabicyclo[3.2.1]octan-3-yl)phenyl)-7H-pyrrolo[2,3-d]pyrimidin-4-yl)-2-methylphenyl)ethyl)-1,2,4-oxadiazole-5-carboxamide] | 1.4 nM | 1040 nM
7 | Cc1cc(-c2ncnc3[nH]c(-c4ccc(N5CCN(CC6CCN(c7ccc(N8CC(=O)NC8=O)cc7)CC6)CC5)cn4)cc23)ccc1[C@@H](C)NC(=O)c1nc(C(C)(C)C)no1 [Example 184, (R)-3-(tert-butyl)-N-(1-(4-(6-(5-(4-((1-(4-(2,4-dioxoimidazolidin-1-yl)phenyl)piperidin-4-yl)methyl)piperazin-1-yl)pyridin-2-yl)-7H-pyrrolo[2,3-d]pyrimidin-4-yl)-2-methylphenyl)ethyl)-1,2,4-oxadiazole-5-carboxamide] | 2.7 nM | > 10000 nM
8 | Cc1cc(-c2ncnc3[nH]c(-c4ccc(N5CCN(CC6CCN(c7ccc(N8CCC(=O)NC8=O)cc7)CC6)CC5)cn4)cc23)ccc1[C@@H](C)NC(=O)c1nnc(C(C)(C)C)o1 [Example 185, (R)-5-(tert-butyl)-N-(1-(4-(6-(5-(4-((1-(4-(2,4-dioxotetrahydropyrimidin-1(2H)-yl)phenyl)piperidin-4-yl)methyl)piperazin-1-yl)pyridin-2-yl)-7H-pyrrolo[2,3-d]pyrimidin-4-yl)-2-methylphenyl)ethyl)-1,3,4-oxadiazole-2-carboxamide] | 0.5 nM | > 10000 nM
9 | Cc1cc(-c2ncnc3[nH]c(-c4ncc(N5CCN(CC6CCN(c7ccc(N8CCC(=O)NC8=O)cc7)CC6)CC5)s4)cc23)ccc1[C@@H](C)NC(=O)c1nc(C(C)(C)C)no1 [Example 186, (R)-3-(tert-butyl)-N-(1-(4-(6-(5-(4-((1-(4-(2,4-dioxotetrahydropyrimidin-1(2H)-yl)phenyl)piperidin-4-yl)methyl)piperazin-1-yl)thiazol-2-yl)-7H-pyrrolo[2,3-d]pyrimidin-4-yl)-2-methylphenyl)ethyl)-1,2,4-oxadiazole-5-carboxamide] | 1.04 nM | > 10000 nM
10 | Cc1cc(-c2ncnc3[nH]c(-c4ccc(N5CCN(CC6CCN(c7ccc(-n8ccc(=O)[nH]c8=O)cc7)CC6)CC5)nc4)cc23)ccc1[C@@H](C)NC(=O)c1nc(C(C)(C)C)no1 [Example 187, (R)-3-(tert-butyl)-N-(1-(4-(6-(6-(4-((1-(4-(2,4-dioxo-3,4-dihydropyrimidin-1(2H)-yl)phenyl)piperidin-4-yl)methyl)piperazin-1-yl)pyridin-3-yl)-7H-pyrrolo[2,3-d]pyrimidin-4-yl)-2-methylphenyl)ethyl)-1,2,4-oxadiazole-5-carboxamide] | 2.65 nM | > 10000 nM
11 | Cc1cc(-c2ncnc3[nH]c(-c4ccc(N5CCN([C@H]6C[C@@H](c7ccc(N[C@H]8CCC(=O)NC8=O)cc7)C6)CC5)nc4)cc23)ccc1[C@@H](C)NC(=O)c1nc(C(C)(C)C)no1 [Example 188, 3-(tert-butyl)-N-((R)-1-(4-(6-(6-(4-((1R,3s)-3-(4-(((S)-2,6-dioxopiperidin-3-yl)amino)phenyl)cyclobutyl)piperazin-1-yl)pyridin-3-yl)-7H-pyrrolo[2,3-d]pyrimidin-4-yl)-2-methylphenyl)ethyl)-1,2,4-oxadiazole-5-carboxamide] | 3.03 nM | > 10000 nM
12 | Cc1cc(-c2ncnc3[nH]c(-c4ccc(N5CCN([C@H]6C[C@@H](c7ccc(N[C@@H]8CCC(=O)NC8=O)cc7)C6)CC5)nc4)cc23)ccc1[C@@H](C)NC(=O)c1nc(C(C)(C)C)no1 [Example 189, 3-(tert-butyl)-N-((R)-1-(4-(6-(6-(4-((1S,3s)-3-(4-(((R)-2,6-dioxopiperidin-3-yl)amino)phenyl)cyclobutyl)piperazin-1-yl)pyridin-3-yl)-7H-pyrrolo[2,3-d]pyrimidin-4-yl)-2-methylphenyl)ethyl)-1,2,4-oxadiazole-5-carboxamide] | > 2000 nM | > 10000 nM
13 | Cc1cc(-c2ncnc3[nH]c(-c4ccc(N5CCN(CC6CCN(c7ccc(N8CCC(=O)NC8=O)cc7)CC6)C(=O)C5)cc4)cc23)ccc1[C@@H](C)NC(=O)c1nc(C(C)(C)C)no1 [Example 190, (R)-3-(tert-butyl)-N-(1-(4-(6-(4-(4-((1-(4-(2,4-dioxotetrahydropyrimidin-1(2H)-yl)phenyl)piperidin-4-yl)methyl)-3-oxopiperazin-1-yl)phenyl)-7H-pyrrolo[2,3-d]pyrimidin-4-yl)-2-methylphenyl)ethyl)-1,2,4-oxadiazole-5-carboxamide] | 0.28 nM | > 10000 nM
14 | Cc1cc(-c2ncnc3[nH]c(-c4ccc(N5CCN([C@H]6C[C@@H](c7ccc(O[C@H]8CCC(=O)NC8=O)cc7)C6)CC5)nc4)cc23)ccc1[C@@H](C)NC(=O)c1nc(C(C)(C)C)no1 [Example 191, 3-(tert-butyl)-N-((R)-1-(4-(6-(6-(4-((1R,3s)-3-(4-(((S)-2,6-dioxopiperidin-3-yl)oxy)phenyl)cyclobutyl)piperazin-1-yl)pyridin-3-yl)-7H-pyrrolo[2,3-d]pyrimidin-4-yl)-2-methylphenyl)ethyl)-1,2,4-oxadiazole-5-carboxamide] | 1.59 nM | > 10000 nM
15 | Cc1cc(-c2ncnc3[nH]c(-c4ccc(N5CCN([C@H]6C[C@@H](c7ccc(O[C@@H]8CCC(=O)NC8=O)cc7)C6)CC5)nc4)cc23)ccc1[C@@H](C)NC(=O)c1nc(C(C)(C)C)no1 [Example 192, 3-(tert-butyl)-N-((R)-1-(4-(6-(6-(4-((1S,3s)-3-(4-(((R)-2,6-dioxopiperidin-3-yl)oxy)phenyl)cyclobutyl)piperazin-1-yl)pyridin-3-yl)-7H-pyrrolo[2,3-d]pyrimidin-4-yl)-2-methylphenyl)ethyl)-1,2,4-oxadiazole-5-carboxamide] | > 2000 nM | > 10000 nM
